From patent publication US9260435B2, “Substituted imidazopyrazines as Akt kinase inhibitors” (Bayer Intellectual Property GmbH, priority 2012, dated 2016)

Experiments:
[1] = biological target: His-tagged human recombinant kinase full-length Akt1 (Homo sapiens (Human), UniProt P31749); assay: Akt1 kinase assay (TR-FRET); type: biochemical; conditions: 10 μM ATP, read-out: Akt1, median IC50
Text: Biological Assay 1.0: Akt1 Kinase Assay
Akt1 inhibitory activity of compounds of the present invention was quantified employing the Akt1 TR-FRET assay as described in the following paragraphs.
His-tagged human recombinant kinase full-length Akt1 expressed in insect cells was purchased form Invitrogen (part number PV 3599). As substrate for the kinase reaction the biotinylated peptide biotin-Ahx-KKLNRTLSFAEPG (C-terminus in amide form) was used which can be purchased e.g. from the company Biosynthan GmbH (Berlin-Buch, Germany).
For the assay 50 nl of a 100 fold concentrated solution of the test compound in DMSO was pipetted into a black low volume 384 well microtiter plate (Greiner Bio-One, Frickenhausen, Germany), 2 μl of a solution of Akt1 in assay buffer [50 mM TRIS/HCl pH 7.5, 5 mM MgCl2, 1 mM dithiothreitol, 0.02% (v/v) Triton X-100 (Sigma)] were added and the mixture was incubated for 15 min at 22° C. to allow prebinding of the test compounds to the enzyme before the start of the kinase reaction. Then the kinase reaction was started by the addition of 3 μl of a solution of adenosine-tri-phosphate (ATP, 16.7 μM=>final conc. in the 5 μl assay volume is 10 μM) and substrate (1.67 μM=>final conc. in the 5 μl assay volume is 1 μM) in assay buffer and the resulting mixture was incubated for a reaction time of 60 min at 22° C. The concentration of Akt1 in the assay was adjusted depending of the activity of the enzyme lot and was chosen appropriate to have the assay in the linear range, typical enzyme concentrations were in the range of about 0.05 ng/μl (final conc. in the 5 μl assay volume).
The reaction was stopped by the addition of 5 μl of a solution of HTRF detection reagents (200 nM streptavidine-XL665 [Cisbio] and 1.5 nM anti-phosho-Serine antibody [Millipore, cat. #35-001] and 0.75 nM LANCE Eu-W 1024 labeled anti-mouse IgG antibody [Perkin Elmer]) in an aqueous EDTA-solution (100 mM EDTA, 0.1% (w/v) bovine serum albumin in 50 mM HEPES/NaOH pH 7.5).
The resulting mixture was incubated 1 h at 22° C. to allow the binding of the biotinylated phosphorylated peptide to the streptavidine-XL665 and the antibodies. Subsequently the amount of phosphorylated substrate was evaluated by measurement of the resonance energy transfer from the anti-mouse-IgG-Eu-Chelate to the streptavidine-XL665. Therefore, the fluorescence emissions at 620 nm and 665 nm after excitation at 350 nm was measured in a HTRF reader, e.g. a Rubystar (BMG Labtechnologies, Offenburg, Germany) or a Viewlux (Perkin-Elmer). The ratio of the emissions at 665 nm and at […] was taken as the measure for the amount of phosphorylated substrate. The data were normalised (enzyme reaction without inhibitor=0% inhibition, all other assay components but no enzyme=100% inhibition).

[2] = tested on: phospho-AKT at S473; assay: Cellular p-AKT1/2/3-S473 assay in KPL-4 cells; type: cell-based; conditions: Homo sapiens, KPL4; KPL-4 breast tumour cell line, 2 hours treatment; read-out: pAKT-S743 median IC50
Description: The phospho-substrates of PI3K-AKT-mTOR axis were used as the readouts to reflect pathway inhibition. Cells were seeded at 60-80% confluency per well in 96-well cell culture plates. After overnight incubation at 37° C. 5% CO2, cells were treated with compounds and vehicle at 37° C. for 2 hours. […] All measurements where at least done in duplicates and confirmed by independent repetition. Alternatively pAKT-S473 was measured using the “Akt Duplex” of the MULTI-SPOT® Assay System (Fa. Meso Scale Discovery, Cat# N41100B-1) following manufacturers instructions. Each assay used 20 μg of protein extract and measured total AKT and p-AKT content simultaneously in one well. All measurements where at least done in duplicates and confirmed by independent repetition. Values for P-AKT are expressed as percentage of P-AKT level compared to total-AKT content of the extracts.

[3] = tested on: KPL-4 breast cancer cell line; assay: Tumor cell proliferation assay (CellTiter-Glo, 72 h), KPL-4; type: cell-based; conditions: Homo sapiens, KPL4, 72 h drug exposure; for inhibition at 1.67 µM: read-out: KPL-4 median inhibition at 1.67 μM (%)
Description: (§1) Biological Assay 4.0: Tumor Cell Proliferation Assays
(§2) Compounds were tested in a cell-based assay that measures the capacity of the compounds to inhibit tumour cell proliferation following a 72 h drug exposure. Cell viability is determined using CellTiter-Glow® (CTG, Promega, cat# G7571/2/3). The CellTiter-Glo® Luminescent Cell Viability Assay is a homogeneous method to determine the number of viable cells in culture. Detection is based on using the luciferase reaction to measure the amount of ATP from viable cells. The amount of ATP in cells correlates with cell viability. Within minutes after a loss of membrane integrity, cells lose the ability to synthesize ATP, and endogenous ATPases destroy any remaining ATP; thus the levels of ATP fall precipitously.
(§3) Cells were plated at 3000-5000 cells/well (depending on the cell lines) in 90 μL growth medium on MTPs (Corning; #3603, black plate, clear flat bottom). For each cell line assayed, cells were plated onto a separate plate for determination of […] at t=0 hour and t=72 hour time points. Following overnight incubation at 37° C., chemiluminescence values for the t=0 samples were determined after adding 10 μl medium and 100 μl CTG solution according to manufacture protocol. Plates for the t=72 hour time points were treated with compounds diluted into growth medium at ten times final concentration added in 10 μL to the cell culture plate. Cells were then incubated for 72 hours at 37° C. Chemiluminescence values for the t=72 hour samples were determined. […] Experiments were controlled using a reference compound as standard.
(§4) Preferred compounds of the present invention show in this assay an inhibition of cell growth of cell lines such as the KPL-4 breast cancer cell line and the MCF-7 breast tumour cell line ([…], hormone dependent) with a median IC50 of <10 μM, more preferably, median IC50≦1 μM.

[4] = tested on: MCF-7 breast tumour cell line; assay: Tumor cell proliferation assay (CellTiter-Glo, 72 h), MCF-7; type: cell-based; conditions: Homo sapiens, MCF7, 72 h drug exposure; for inhibition at 1.67 µM: read-out: MCF-7 median inhibition at 1.67 μM (%)
Description: as §1, §2, §3, §4

Chain of His-tagged human recombinant kinase full-length Akt1 (P31749 whole entry): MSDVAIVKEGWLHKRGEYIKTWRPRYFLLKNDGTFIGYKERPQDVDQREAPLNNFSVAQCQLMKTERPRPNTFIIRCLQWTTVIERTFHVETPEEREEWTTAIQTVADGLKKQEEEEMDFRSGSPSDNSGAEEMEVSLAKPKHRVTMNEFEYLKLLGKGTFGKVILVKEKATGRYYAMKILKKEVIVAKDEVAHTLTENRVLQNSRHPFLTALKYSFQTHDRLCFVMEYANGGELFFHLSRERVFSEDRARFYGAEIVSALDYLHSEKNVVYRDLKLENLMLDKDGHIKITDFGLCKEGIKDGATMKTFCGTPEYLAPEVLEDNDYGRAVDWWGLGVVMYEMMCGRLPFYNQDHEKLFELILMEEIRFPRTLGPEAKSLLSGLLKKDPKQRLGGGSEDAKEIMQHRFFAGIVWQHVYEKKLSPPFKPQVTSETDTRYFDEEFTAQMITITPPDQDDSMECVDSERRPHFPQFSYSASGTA

## Cc1cn2c(-c3ccccc3)c(-c3ccc(C4(N)CCC4)cc3)nc2c(C)n1 [Example 2, 1-[4-(6,8-Dimethyl-3-phenylimidazo[1,2-a]pyrazin-2-yl)phenyl]-cyclobutanamine]
[1]
  IC50: 61 nM
[2]
  IC50: 27 nM
[3]
  inhibition at 1.67 µM: 68%
  IC50: 710 nM
[4]
  inhibition at 1.67 µM: 70.8%
  IC50: 720 nM

## COc1nc(Br)cn2c(-c3ccccc3)c(-c3ccc(C4(N)CCC4)cc3)nc12 [Example 3, 1-[4-(6-Bromo-8-methoxy-3-phenylimidazo[1,2-a]pyrazin-2-yl)phenyl]cyclobutanamine]
[1]
  IC50: 22 nM
[2]
  IC50: 190 nM
[3]
  inhibition at 1.67 µM: 57%
  IC50: 1700 nM
[4]
  inhibition at 1.67 µM: 46.2%
  IC50: 1700 nM

## CCc1cn2c(-c3ccccc3)c(-c3ccc(C4(N)CCC4)cc3)nc2c(OC)n1 [Example 4, 1-[4-(6-Ethyl-8-methoxy-3-phenylimidazo[1,2-a]pyrazin-2-yl)phenyl]cyclobutanamine]
[1]
  IC50: 110 nM
[2]
  IC50: 85 nM
[3]
  inhibition at 1.67 µM: 64.4%
  IC50: 1200 nM
[4]
  inhibition at 1.67 µM: 72.4%
  IC50: 850 nM

## NC(=O)c1cn2c(-c3ccccc3)c(-c3ccc(C4(N)CCC4)cc3)nc2cn1 [Example 6, 2-[4-(1-Aminocyclobutyl)phenyl]-3-phenylimidazo[1,2-a]pyrazine-6-carboxamide]
[1]
  IC50: 110 nM
[2]
  IC50: 20 nM
[3]
  inhibition at 1.67 µM: 79.5%
  IC50: 290 nM
[4]
  inhibition at 1.67 µM: 57.3%
  IC50: 1100 nM

## COC(=O)c1cn2c(-c3ccccc3)c(-c3ccc(C4(N)CCC4)cc3)nc2c(OC)n1 [Example 7, Methyl 2-[4-(1-aminocyclobutyl)phenyl]-8-methoxy-3-phenylimidazo[1,2-a]pyrazine-6-carboxylate]
[1]
  IC50: 64 nM
[2]
  IC50: 44 nM
[3]
  inhibition at 1.67 µM: 22%
  IC50: 5500 nM
[4]
  inhibition at 1.67 µM: 72.3%
  IC50: 420 nM

## COc1nc(C(N)=O)cn2c(-c3ccccc3)c(-c3ccc(C4(N)CCC4)cc3)nc12 [Example 8, 2-[4-(1-Aminocyclobutyl)phenyl]-8-methoxy-3-phenylimidazo[1,2-a]pyrazine-6-carboxamide]
[1]
  IC50: 29 nM
[2]
  IC50: 7.5 nM
[3]
  inhibition at 1.67 µM: 83.6%
  IC50: 150 nM
[4]
  inhibition at 1.67 µM: 73.1%
  IC50: 270 nM
